Among the data in ChEMBL document CHEMBL1743141, “Membrane transporters in drug development” (Nat Rev Drug Discov, 2010) are Activity values, retold here.

Square brackets hold non-standard residues; d marks the D form. Peptide text beside a SMILES is read from it. Sar = CNCC(=O)O

What all share (type): ADME
For series [1], the target named is T1, Solute carrier organic anion transporter family member 1B3 (Homo sapiens, UniProt Q9NPD5).
T1 sequence (Q9NPD5 whole entry): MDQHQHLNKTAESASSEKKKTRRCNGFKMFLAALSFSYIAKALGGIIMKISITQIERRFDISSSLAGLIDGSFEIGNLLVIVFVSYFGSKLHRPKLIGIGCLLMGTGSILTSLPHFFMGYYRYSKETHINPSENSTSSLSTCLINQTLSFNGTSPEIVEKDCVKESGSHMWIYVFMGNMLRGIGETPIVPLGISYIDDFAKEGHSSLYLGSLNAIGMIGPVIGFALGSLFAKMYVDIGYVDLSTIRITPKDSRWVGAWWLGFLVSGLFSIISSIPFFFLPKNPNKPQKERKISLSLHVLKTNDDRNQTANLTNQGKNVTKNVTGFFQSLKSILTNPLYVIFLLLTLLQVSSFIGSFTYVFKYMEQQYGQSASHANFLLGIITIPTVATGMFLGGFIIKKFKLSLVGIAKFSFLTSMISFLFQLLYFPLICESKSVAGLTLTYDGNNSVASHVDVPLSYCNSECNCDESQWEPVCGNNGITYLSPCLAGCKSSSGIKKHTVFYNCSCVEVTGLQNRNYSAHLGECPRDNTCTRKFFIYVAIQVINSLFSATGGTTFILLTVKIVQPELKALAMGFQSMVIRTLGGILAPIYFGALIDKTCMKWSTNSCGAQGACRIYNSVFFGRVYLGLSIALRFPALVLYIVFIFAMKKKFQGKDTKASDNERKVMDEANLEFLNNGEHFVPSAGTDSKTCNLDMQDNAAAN
As to the kind of experiment: Substrates of transporters of clinical importance in the absorption and disposition of drugs, OATP1B3.

Series [2] addresses T2, Solute carrier family 15 member 1 (Homo sapiens, UniProt P46059).
T2 sequence (P46059 whole entry): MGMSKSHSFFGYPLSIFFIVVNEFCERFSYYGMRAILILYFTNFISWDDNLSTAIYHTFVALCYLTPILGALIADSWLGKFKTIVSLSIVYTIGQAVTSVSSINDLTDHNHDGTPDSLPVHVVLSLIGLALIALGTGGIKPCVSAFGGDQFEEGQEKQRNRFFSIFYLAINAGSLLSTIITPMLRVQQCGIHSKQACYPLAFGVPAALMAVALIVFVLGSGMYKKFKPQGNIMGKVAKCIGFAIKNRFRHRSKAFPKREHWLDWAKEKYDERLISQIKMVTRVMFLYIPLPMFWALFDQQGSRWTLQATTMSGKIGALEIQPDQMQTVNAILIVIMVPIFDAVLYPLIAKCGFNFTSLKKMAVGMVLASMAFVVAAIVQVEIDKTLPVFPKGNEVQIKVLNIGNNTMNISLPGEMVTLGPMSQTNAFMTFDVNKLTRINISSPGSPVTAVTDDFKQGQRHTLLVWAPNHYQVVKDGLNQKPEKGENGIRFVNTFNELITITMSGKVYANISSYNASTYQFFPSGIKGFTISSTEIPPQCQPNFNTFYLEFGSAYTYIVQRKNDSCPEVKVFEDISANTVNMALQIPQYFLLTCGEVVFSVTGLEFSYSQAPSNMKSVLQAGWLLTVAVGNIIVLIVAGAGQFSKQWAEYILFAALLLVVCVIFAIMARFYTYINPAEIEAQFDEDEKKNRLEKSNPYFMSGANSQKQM
In words: Substrates of transporters of clinical importance in the absorption and disposition of drugs, PEPT1.

Series [3] deals with T3, Solute carrier family 15 member 2 (Homo sapiens, UniProt Q16348).
T3 sequence (Q16348 whole entry): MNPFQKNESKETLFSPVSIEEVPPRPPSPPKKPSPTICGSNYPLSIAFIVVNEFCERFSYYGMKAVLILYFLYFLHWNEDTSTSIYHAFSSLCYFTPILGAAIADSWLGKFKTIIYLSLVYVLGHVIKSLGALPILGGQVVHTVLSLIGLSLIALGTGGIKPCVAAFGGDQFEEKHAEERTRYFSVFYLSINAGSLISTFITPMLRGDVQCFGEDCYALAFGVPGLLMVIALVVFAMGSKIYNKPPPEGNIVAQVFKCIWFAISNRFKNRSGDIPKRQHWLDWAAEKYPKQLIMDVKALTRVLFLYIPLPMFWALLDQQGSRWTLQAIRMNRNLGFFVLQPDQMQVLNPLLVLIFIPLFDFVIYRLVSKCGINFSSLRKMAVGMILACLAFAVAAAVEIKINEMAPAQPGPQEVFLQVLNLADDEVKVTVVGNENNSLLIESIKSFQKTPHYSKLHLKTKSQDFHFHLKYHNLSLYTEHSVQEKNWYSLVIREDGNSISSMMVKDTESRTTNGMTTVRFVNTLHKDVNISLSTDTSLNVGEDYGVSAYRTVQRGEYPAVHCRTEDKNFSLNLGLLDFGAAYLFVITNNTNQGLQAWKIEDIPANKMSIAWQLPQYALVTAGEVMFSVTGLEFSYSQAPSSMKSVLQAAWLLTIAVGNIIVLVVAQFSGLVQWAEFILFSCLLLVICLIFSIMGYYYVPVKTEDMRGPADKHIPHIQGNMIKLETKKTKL
In words: Substrates of transporters of clinical importance in the absorption and disposition of drugs, PEPT2.

Series [4] addresses T4, Solute carrier family 22 member 2 (Homo sapiens, UniProt O15244).
T4 sequence (O15244 whole entry): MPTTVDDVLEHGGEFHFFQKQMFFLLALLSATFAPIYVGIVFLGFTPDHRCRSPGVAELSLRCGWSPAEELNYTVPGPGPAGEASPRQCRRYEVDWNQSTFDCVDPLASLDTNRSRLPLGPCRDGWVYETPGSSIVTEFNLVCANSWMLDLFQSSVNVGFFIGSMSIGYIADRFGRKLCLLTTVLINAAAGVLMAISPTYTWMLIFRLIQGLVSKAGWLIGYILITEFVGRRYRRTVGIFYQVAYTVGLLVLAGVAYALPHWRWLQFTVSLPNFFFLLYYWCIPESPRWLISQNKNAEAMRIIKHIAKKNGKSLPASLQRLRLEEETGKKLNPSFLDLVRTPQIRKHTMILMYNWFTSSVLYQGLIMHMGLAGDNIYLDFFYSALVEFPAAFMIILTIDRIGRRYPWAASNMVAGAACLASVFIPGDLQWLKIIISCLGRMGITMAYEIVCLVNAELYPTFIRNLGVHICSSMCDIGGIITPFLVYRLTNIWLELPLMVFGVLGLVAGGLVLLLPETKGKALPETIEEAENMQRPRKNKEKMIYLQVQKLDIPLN
In words: Substrates of transporters of clinical importance in the absorption and disposition of drugs, OCT2.

For series [5], the target named is T5, Solute carrier organic anion transporter family member 1B1 (Homo sapiens, UniProt Q9Y6L6).
T5 sequence (Q9Y6L6 whole entry): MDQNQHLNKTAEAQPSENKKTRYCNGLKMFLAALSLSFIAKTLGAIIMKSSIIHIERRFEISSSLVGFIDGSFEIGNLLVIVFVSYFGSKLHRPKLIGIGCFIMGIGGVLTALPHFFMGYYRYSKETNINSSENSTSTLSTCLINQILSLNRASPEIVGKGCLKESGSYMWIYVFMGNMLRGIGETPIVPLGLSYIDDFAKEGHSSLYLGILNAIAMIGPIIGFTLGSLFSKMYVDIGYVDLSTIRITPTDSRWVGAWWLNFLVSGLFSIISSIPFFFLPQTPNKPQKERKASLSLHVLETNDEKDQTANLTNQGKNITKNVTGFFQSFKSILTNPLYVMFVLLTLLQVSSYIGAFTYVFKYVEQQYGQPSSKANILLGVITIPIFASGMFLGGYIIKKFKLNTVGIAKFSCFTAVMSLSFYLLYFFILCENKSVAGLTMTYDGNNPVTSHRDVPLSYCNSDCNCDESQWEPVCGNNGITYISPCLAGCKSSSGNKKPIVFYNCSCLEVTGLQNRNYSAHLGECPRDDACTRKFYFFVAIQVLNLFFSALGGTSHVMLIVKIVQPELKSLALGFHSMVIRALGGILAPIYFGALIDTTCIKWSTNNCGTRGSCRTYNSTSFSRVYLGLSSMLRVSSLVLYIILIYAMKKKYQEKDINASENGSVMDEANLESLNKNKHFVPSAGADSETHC
In words: Substrates of transporters of clinical importance in the absorption and disposition of drugs, OATP1B1.

The target in series [6] is T6, Solute carrier organic anion transporter family member 1A2 (Homo sapiens, UniProt P46721).
T6 sequence (P46721 whole entry): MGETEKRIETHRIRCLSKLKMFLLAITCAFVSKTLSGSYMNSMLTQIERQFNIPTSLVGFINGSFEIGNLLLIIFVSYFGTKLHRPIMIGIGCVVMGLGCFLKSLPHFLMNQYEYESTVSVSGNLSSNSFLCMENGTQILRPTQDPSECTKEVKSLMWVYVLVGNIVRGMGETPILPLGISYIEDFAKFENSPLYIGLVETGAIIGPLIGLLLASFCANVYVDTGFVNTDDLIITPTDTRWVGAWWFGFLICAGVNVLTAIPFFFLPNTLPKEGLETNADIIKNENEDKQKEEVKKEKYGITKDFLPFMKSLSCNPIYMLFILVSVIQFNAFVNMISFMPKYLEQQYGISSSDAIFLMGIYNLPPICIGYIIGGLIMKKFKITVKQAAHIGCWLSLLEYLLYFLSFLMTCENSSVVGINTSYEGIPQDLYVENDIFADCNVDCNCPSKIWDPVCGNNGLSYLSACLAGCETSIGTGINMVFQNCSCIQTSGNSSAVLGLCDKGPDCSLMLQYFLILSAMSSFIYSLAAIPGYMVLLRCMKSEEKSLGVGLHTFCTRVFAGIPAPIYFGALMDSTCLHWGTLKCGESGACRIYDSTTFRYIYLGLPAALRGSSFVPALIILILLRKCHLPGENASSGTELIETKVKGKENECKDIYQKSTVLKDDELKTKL
As to the kind of experiment: Substrates of transporters of clinical importance in the absorption and disposition of drugs, OATP1A2.

For the compound `CCCc1nc2c(C)cc(-c3nc4ccccc4n3C)cc2n1Cc1ccc(-c2ccccc2C(=O)O)cc1`, the Activity entry in series [1] was “transporter substrate”. In the case of `CCOC(=O)[C@H](CCc1ccccc1)N[C@@H](C)C(=O)N1CCC[C@H]1C(=O)O`, the Activity entry in series [2] and in series [3] was “transporter substrate” throughout. `NC12CC3CC(CC(C3)C1)C2` [AMANTADINE]: in series [4], the Activity result is “transporter substrate”. On the same count and under the same terms, for `N=C(N)NC(=O)c1nc(Cl)c(N)nc1N` [AMILORIDE] the value was “transporter substrate”.

Regarding `NCC(=O)CCC(=O)O` [AMINOLEVULINIC ACID], the Activity result in series [2] and in series [3] was “transporter substrate” each time. For the compound `C=CC1=C(C)/C(=C/c2[nH]c(Cc3[nH]c(/C=C4\NC(=O)C(C)=C4C=C)c(C)c3CCC(=O)O[C@@H]3O[C@H](C(=O)O)[C@@H](O)[C@H](O)[C@H]3O)c(CCC(=O)O[C@@H]3O[C@H](C(=O)O)[C@@H](O)[C@H](O)[C@H]3O)c2C)NC1=O` [BILIRUBIN GLUCURONIDE], the Activity result in series [5] is listed as “transporter substrate”.

On to `C=CC1=C(C)/C(=C/c2[nH]c(Cc3[nH]c(/C=C4\NC(=O)C(C)=C4C=C)c(C)c3CCC(=O)O)c(CCC(=O)O)c2C)NC1=O` [BILIRUBIN], for which the Activity entry in series [5] is listed as “transporter substrate”.

Take `CC1=C(C(=O)O)N2C(=O)[C@@H](NC(=O)[C@H](N)c3ccc(O)cc3)[C@H]2SC1` [CEFADROXIL]: the Activity result in series [2] and in series [3] was “transporter substrate” in each case. As for `CC1=C(C(=O)O)N2C(=O)[C@@H](NC(=O)[C@H](N)c3ccccc3)[C@H]2SC1` [CEPHALEXIN ANHYDROUS], the Activity result in series [2] and in series [3] was “transporter substrate” each time. Turning to `CN(CC(=O)O)C(=O)CN` [GLYCYLSARCOSINE] (H-Gly-[Sar]-OH), the Activity result in series [2] and in series [3] was “transporter substrate” throughout. For `C[C@H]1COc2c(N3CCN(C)CC3)c(F)cc3c(=O)c(C(=O)O)cn1c23.C[C@H]1COc2c(N3CCN(C)CC3)c(F)cc3c(=O)c(C(=O)O)cn1c23.O` [LEVOFLOXACIN], in series [6], the Activity entry was “transporter substrate”. Still for that read-out and setting: the same measure for `C[C@@H]1O[C@@H](O[C@H]2C[C@@H](O)[C@]3(CO)[C@H]4[C@H](O)C[C@]5(C)[C@@H](C6=CC(=O)OC6)CC[C@]5(O)[C@@H]4CC[C@]3(O)C2)[C@H](O)[C@H](O)[C@H]1O` [OUABAIN]: “transporter substrate”.

On to `CC(C)NCC(O)COc1cccc2[nH]ccc12` (stereo not drawn) [PINDOLOL], for which the Activity entry in series [4] is “transporter substrate”. For the compound `CNC(=C[N+](=O)[O-])NCCSCc1ccc(CN(C)C)o1` [RANITIDINE], in series [4], the Activity result is “transporter substrate”. `CCOc1cc(CC(=O)N[C@@H](CC(C)C)c2ccccc2N2CCCCC2)ccc1C(=O)O` [REPAGLINIDE]: in series [5], the Activity entry is “transporter substrate”. `CSCC[C@H](NC(=O)[C@H](Cc1ccc(OS(=O)(=O)O)cc1)NC(=O)[C@@H](N)CC(=O)O)C(=O)NCC(=O)N[C@@H](Cc1c[nH]c2ccccc12)C(=O)N[C@@H](CCSC)C(=O)N[C@@H](CC(=O)O)C(=O)N[C@@H](Cc1ccccc1)C(N)=O` [SINCALIDE]: the Activity entry in series [1] is on record as “transporter substrate”. The same measure, in the same setting: the same measure for `CCCc1nc2c(C)cc(-c3nc4ccccc4n3C)cc2n1Cc1ccc(-c2ccccc2C(=O)O[C@@H]2O[C@H](C(=O)O)[C@@H](O)[C@H](O)[C@H]2O)cc1` [TELMISARTAN GLUCURONIDE]: “transporter substrate”. Turning to `c1cnc2cc3c(cc2n1)[C@@H]1CNC[C@H]3C1` [VARENICLINE], the Activity result in series [4] is listed as “transporter substrate”.
